For one test, the system named is A549. In words: Inhibition of TNF-alpha-stimulated E-selectin promoter transfected human A549 cells after 6 hrs. It counts as functional, cell-based. The note with it: A549, 6 h.
In test [1] the target is T1, Inhibitor of nuclear factor kappa-B kinase subunit beta (Homo sapiens, UniProt O14920).
T1 sequence (O14920 whole entry): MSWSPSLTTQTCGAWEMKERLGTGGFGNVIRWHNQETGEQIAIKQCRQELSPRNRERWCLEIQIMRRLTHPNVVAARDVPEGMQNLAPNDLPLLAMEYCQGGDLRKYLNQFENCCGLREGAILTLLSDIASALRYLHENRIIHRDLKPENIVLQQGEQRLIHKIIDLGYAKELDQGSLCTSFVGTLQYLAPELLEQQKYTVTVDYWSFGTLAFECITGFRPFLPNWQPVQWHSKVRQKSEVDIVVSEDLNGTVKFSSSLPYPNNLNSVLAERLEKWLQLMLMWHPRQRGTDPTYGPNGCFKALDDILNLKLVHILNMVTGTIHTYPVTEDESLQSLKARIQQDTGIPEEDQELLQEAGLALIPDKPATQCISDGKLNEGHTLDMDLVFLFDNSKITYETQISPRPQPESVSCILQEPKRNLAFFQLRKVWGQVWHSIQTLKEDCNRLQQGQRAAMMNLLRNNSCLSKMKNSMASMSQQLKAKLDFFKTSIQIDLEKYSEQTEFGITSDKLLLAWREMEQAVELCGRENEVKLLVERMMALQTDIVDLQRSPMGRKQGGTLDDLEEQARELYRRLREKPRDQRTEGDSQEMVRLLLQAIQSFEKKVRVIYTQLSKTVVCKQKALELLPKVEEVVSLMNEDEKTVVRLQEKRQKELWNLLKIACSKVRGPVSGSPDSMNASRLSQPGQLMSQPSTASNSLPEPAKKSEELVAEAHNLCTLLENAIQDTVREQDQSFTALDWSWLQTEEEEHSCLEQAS
In words: Inhibition of IKK2.

For test [2], the target named is T2, Inhibitor of nuclear factor kappa-B kinase subunit alpha (Homo sapiens, UniProt O15111).
T2 sequence (O15111 whole entry): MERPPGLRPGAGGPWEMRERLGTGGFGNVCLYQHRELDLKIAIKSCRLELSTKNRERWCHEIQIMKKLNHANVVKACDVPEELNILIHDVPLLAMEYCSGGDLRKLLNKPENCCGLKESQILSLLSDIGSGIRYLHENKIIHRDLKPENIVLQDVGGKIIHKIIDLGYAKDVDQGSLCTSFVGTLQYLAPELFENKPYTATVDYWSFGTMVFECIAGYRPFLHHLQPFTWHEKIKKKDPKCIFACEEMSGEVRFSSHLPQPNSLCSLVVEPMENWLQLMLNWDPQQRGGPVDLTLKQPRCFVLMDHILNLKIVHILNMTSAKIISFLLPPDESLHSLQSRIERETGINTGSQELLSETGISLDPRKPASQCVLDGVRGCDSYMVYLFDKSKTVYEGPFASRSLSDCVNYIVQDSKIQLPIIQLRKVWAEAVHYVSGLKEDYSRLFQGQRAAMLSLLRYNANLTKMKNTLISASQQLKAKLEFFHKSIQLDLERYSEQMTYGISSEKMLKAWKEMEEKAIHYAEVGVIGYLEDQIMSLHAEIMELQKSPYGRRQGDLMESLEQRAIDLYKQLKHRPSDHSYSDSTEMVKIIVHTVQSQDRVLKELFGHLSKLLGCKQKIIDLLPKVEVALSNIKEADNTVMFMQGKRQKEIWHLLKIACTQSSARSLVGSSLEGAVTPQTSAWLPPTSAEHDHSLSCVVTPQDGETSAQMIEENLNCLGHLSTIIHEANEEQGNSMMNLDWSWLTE
The test is described as follows: Inhibition of IKK1.

Test [3] can be described thus: Selectivity ratio of IC50 for E-selectin promoter transfected in human A549 cells to IC50 for IKK2. Format: functional.
Test [4] can be described thus: Selectivity ratio of IC50 for IKK1 to IC50 for IKK2.
The target of test [5] is T3, Inhibitor of nuclear factor kappa-B kinase subunit alpha (Homo sapiens) (UniProt O15111).
T3 sequence (whole entry): T2 sequence (O15111 whole entry)
In words: Inhibition of IKK1 at 10 uM.

For the compound `O=S(=O)(c1ccc(-c2ccnc(Nc3ccc4ncsc4c3)n2)cc1)N1CCSCC1`, the IC50 – broadly, the point on the concentration scale where inhibition reaches its midpoint – with A549 worked out at 289 nM; in test [1] it was 250 nM; in test [2], 5000 nM. Further, in test [3], the “Ratio IC50” value was 1.2.

Consider `O=C(Nc1ccc(-c2ccnc(Nc3ccc4ncsc4c3)n2)cc1)C1CCCN1` (stereo unspecified), for which the Ratio IC50 in test [4] amounted to 1. Besides, the IC50 in test [1] worked out at 130 nM; in test [2] it was 146 nM.

For `O=S(=O)(c1ccccc1)c1ccc(-c2ccnc(Nc3ccc4ncsc4c3)n2)cc1`, the Ratio IC50 in test [4] was greater than 22. In addition, the midpoint of inhibition in test [1], the IC50, lay at 440 nM. In test [5], the inhibition (as a rule, the drop in the measured response relative to a control, in per cent) is 24%.

Regarding `O=S(=O)(c1ccc(-c2ccnc(Nc3ccc4ncsc4c3)n2)cc1)N1CCNCC1`, the IC50 was determined as 5700 nM in the test with A549, 64 nM in test [1] and 850 nM in test [2]. Also, the values for the Ratio IC50 in test [4] and in test [3] were 13 and 89, respectively.

`CN(CCOc1ccc(-c2ccnc(Nc3ccc4ncsc4c3)n2)cc1)c1ccccn1` showed an IC50 in test [1] of 4000 nM.

As for `COc1ccc(S(=O)(=O)Nc2ccc(-c3ccnc(Nc4ccc5ncsc5c4)n3)cc2)cc1`, the IC50 in test [1] came out at 8900 nM.

`NCCC(=O)Nc1ccc(-c2ccnc(Nc3ccc4ncsc4c3)n2)cc1`: the Ratio IC50 in test [4] is 3. The IC50 in test [1] was 270 nM; in test [2] it was 731 nM.

`O=S(=O)(Nc1ccc(-c2ccnc(Nc3ccc4ncsc4c3)n2)cc1)c1cc(Cl)c(Cl)s1`: the IC50 in test [1] amounted to 8900 nM.

`CN1CCN(c2ccc(-c3ccnc(Nc4ccc5ncsc5c4)n3)cc2)CC1`: the IC50 in the test on A549 was 1270 nM; in test [1], 410 nM; in test [2], 2630 nM. The Ratio IC50 in test [4] is 6; in test [3] it was 3.1.

With `O=S(=O)(c1ccc(-c2ccnc(Nc3ccc4ncsc4c3)n2)cc1)N1CCCC1`, the half-inhibitory concentration (IC50) in the test on A549 was found to be 1500 nM; in test [1], 540 nM. In test [5], this compound registered an inhibition of 48%. In addition, in test [3], the “Ratio IC50” value was 2.8.

As for `c1cn(-c2ccc(-c3ccnc(Nc4ccc5ncsc5c4)n3)cc2)cn1`, the Ratio IC50 in test [4] is greater than 14. Moreover, the half-maximal inhibitory concentration (IC50) in test [1] turned out to be 700 nM. For the same compound, the inhibition in test [5] was 34%.

The compound `COc1cccc2nc(-c3cccs3)nc(NN3C(=O)C=C(C)C3=O)c12` [AS-602868] had an IC50 in test [2] of 13000 nM.

In turn, `Cc1ccc(S(=O)(=O)Nc2ccc(-c3ccnc(Nc4ccc5ncsc5c4)n3)cc2)cc1` showed an IC50 in test [1] of 1500 nM.

`CN(C)S(=O)(=O)c1ccc(-c2ccnc(Nc3ccc4ncsc4c3)n2)cc1`: the half-inhibitory concentration (IC50) in the test on A549 worked out at 1920 nM; in test [1] it was 410 nM. Besides, the Ratio IC50 in test [4] was greater than 24; in test [3] it was 4.7. In addition, the inhibition in test [5] worked out at 28%.

Take `O=S(=O)(Nc1ccc(-c2ccnc(Nc3ccc4ncsc4c3)n2)cc1)c1ccc(Cl)cc1`: the Ratio IC50 in test [4] came out at 3. Moreover, the half-inhibitory concentration (IC50) amounted to 990 nM in test [1] and 2990 nM in test [2].

For `O=S(=O)(Nc1ccc(-c2ccnc(Nc3ccc4ncsc4c3)n2)cc1)c1ccc2nonc2c1`, the IC50 with A549 is 17800 nM; in test [1], 230 nM; in test [2], 4840 nM. For the same compound, the Ratio IC50 is 21 in test [4] and 77 in test [3].

For the compound `c1ccc(Oc2ccc(-c3ccnc(Nc4ccc5ncsc5c4)n3)cc2)cc1`, in test [1], the IC50 was 6600 nM.

With `c1cnc(Oc2ccc(-c3ccnc(Nc4ccc5ncsc5c4)n3)cc2)nc1`, the IC50 in test [1] came out at 3600 nM.

For the compound `O=C(Nc1ccc(-c2ccnc(Nc3ccc4ncsc4c3)n2)cc1)C1CCNCC1`, the IC50 in the test with A549 was 3820 nM; in test [1], 400 nM; in test [2], 1910 nM. Also, in test [3], the “Ratio IC50” value is listed as 9.5.

Regarding `O=S(=O)(c1ccc(-c2ccnc(Nc3ccc4ncsc4c3)n2)cc1)N1CCCCC1`, the IC50 in the test on A549 was 2080 nM; in test [1] it was 600 nM. The Ratio IC50 was greater than 17 in test [4] and 3.5 in test [3]. In test [5], the inhibition was 30%.

Regarding `O=S(=O)(c1ccc(-c2ccnc(Nc3ccc4ncsc4c3)n2)cc1)N1CCOCC1`, the results for the IC50 (in the test on A549; in test [1]; in test [2]) were 1810 nM, 380 nM and 6700 nM, respectively. The “Ratio IC50” value in test [3] is recorded as 4.8.

As to `O=c1ccn(-c2ccc(-c3ccnc(Nc4ccc5ncsc5c4)n3)cc2)cc1`, the Ratio IC50 in test [4] is greater than 4. In addition, the IC50 in test [1] is 2500 nM. Moreover, in test [5], the inhibition came to 14%.

The values are drawn from ChEMBL document CHEMBL1145576, “Synthesis and structure-activity relationship of aminopyrimidine IKK2 inhibitors” (Bioorg Med Chem Lett, 2008).
